pIC50: −log10 of the molar value.
Legend:
CYP2B6 = target: T1, CYP2B6 (Homo sapiens, UniProt P20813); assay: Direct CYP inhibition in human liver microsomes with marker probe substrates; type: in vitro ADME; details: HLM, CYP2B6 probe substrate
T1 sequence (P20813 1-491): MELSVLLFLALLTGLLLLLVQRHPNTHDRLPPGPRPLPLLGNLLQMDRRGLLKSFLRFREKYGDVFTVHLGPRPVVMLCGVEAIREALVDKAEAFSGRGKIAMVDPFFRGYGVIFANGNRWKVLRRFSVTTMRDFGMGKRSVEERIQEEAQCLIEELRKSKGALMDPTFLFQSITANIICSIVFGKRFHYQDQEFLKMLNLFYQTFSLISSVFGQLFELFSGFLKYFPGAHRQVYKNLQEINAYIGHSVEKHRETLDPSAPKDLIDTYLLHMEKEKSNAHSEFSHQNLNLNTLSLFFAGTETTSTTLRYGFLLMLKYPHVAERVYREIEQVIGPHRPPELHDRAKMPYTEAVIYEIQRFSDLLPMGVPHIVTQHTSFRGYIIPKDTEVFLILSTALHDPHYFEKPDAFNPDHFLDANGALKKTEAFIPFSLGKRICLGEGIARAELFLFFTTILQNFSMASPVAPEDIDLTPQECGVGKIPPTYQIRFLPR
Experimental: (§1) The direct inhibition potential of TBI-166 against P450 was determined using the human marker probe reactions for P450 enzymes in human liver microsomes. Briefly, substrate concentrations in the incubation mixture were selected to be around their Km. Eight different concentrations of TBI-166 (from 0.05 to 10 μM) were incubated in human liver microsomes respectively. Incubations were carried out at 37°C in a shaking water bath. The incubation mixtures contained HLM (0.5 mg/mL), probe substrates in the presence or absence of TBI-166 in PBS (100 mM, containing MgCl2 3 mM, pH 7.4). The reactions were initiated by adding NADPH (1 mM) after preincubated the above mixtures at 37°C for 5 min. Positive controls without TBI-166 were included simultaneously. Stock solutions of the test drugs were prepared in acetonitrile. All measurements were performed in triplicate. […] Protein was removed by centrifugation at 4,000 g for 20 min and analyzed by LC-MS/MS ([Li Z. et al., 2019]).
(§2) Metabolites of probe substrates were separated using a Gemini C18 column (2.1 × 50 mm, i. d, […] particle size; United States). […] The analytes and internal standard were detected by positive ion spray in the multiple-reaction-monitoring modes (MRM).
(§3) IC50 values were calculated using nonlinear regression analysis with GraphPad Prism 7 (GraphPad Software Inc., San Diego, CA). […] All data are expressed as the mean ± SD. […]

CYP2J2 = target: T2, CYP2J2 (Homo sapiens, UniProt P51589); assay: as above; type: in vitro ADME; details: HLM, CYP2J2 probe substrate
T2 sequence (P51589 1-502): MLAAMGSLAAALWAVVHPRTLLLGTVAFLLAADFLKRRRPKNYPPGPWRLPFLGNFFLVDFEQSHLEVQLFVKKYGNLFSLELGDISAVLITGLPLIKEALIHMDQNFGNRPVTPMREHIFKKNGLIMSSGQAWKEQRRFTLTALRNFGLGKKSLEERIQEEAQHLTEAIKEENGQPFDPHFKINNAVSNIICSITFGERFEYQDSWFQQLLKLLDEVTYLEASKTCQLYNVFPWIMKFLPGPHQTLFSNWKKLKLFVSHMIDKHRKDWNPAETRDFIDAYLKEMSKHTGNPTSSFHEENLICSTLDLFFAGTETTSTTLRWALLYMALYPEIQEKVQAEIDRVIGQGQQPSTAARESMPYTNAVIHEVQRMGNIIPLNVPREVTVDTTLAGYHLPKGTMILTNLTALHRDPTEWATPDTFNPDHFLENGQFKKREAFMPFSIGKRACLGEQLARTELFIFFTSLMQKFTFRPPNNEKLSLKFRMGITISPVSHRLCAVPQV
Experimental: as §1, §2, §3

[1] = parameters: method as in Xu et al., 2019; details: ref Xu et al., 2019; cited from earlier work
[2] = Stability of BDQ, M2 and TBI-166 in mice plasma (LC-MS/MS validation)
[3] = Steady-state plasma pharmacokinetics of BDQ, M2 and TBI-166 in BALB/c mice; details: for AUC(0-t): Plasma; for t 1/2: after last dose
CYP2C19 = CYP2C19 (Homo sapiens, UniProt P33261); assay: Direct CYP inhibition in human liver microsomes with marker probe substrates; details: read-out: Inhibition, IC50; HLM, CYP2C19 probe substrate
Chain of CYP2C19 (P33261 whole entry): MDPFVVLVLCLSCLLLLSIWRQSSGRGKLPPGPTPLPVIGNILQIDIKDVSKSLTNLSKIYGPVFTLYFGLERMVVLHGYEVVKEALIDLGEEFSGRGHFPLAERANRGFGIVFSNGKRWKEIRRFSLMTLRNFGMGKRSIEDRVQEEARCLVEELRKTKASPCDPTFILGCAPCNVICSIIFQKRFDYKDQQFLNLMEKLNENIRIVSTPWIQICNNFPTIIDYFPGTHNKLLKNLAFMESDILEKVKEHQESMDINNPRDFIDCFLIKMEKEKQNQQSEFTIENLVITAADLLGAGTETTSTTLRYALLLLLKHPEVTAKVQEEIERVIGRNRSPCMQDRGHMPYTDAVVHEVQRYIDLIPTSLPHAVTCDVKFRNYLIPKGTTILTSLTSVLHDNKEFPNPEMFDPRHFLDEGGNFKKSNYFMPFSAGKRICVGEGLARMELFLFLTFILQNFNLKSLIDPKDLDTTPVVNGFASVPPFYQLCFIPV

[4] = plasma, TBI-166 group (TBI-166 alone)

COc1ncccc1Nc1cc2nc3ccccc3n(-c3ccc(OC(F)(F)F)cc3)c-2cc1=NC1CCC(OC)CC1 (stereo not shown) [TBI-166, Pyrifazimine]
pIC50 (CYP2B6): 5.36 | pIC50 (CYP2J2): < 4.30 | concentration in liver tissue [1]: 32280 ng/mL | Stability in mice plasma, RE ([2]; 4℃ for 24 h, 15 ng/mL): -15.07% | Stability in mice plasma, RE ([2]; 4℃ for 24 h, 75 ng/mL): 1.87% | Stability in mice plasma, RE ([2]; 4℃ for 24 h, 750 ng/mL): -12.65% | Stability in mice plasma, RE ([2]; -40℃ for 7 d, 15 ng/mL): -2.20% | Stability in mice plasma, RE ([2]; -40℃ for 7 d, 75 ng/mL): -1.01% | Stability in mice plasma, RE ([2]; -40℃ for 7 d, 750 ng/mL): -13.53% | Stability in mice plasma, RE ([2]; Freeze-thaw three cycles, 15 ng/mL): -14.27% | Stability in mice plasma, RE ([2]; Freeze-thaw three cycles, 75 ng/mL): -5.39% | Stability in mice plasma, RE ([2]; Freeze-thaw three cycles, 750 ng/mL): -13.50% | Stability in mice plasma, RE ([2]; In auto-sample for 24 h, 15 ng/mL): 18.87% | Stability in mice plasma, RE ([2]; In auto-sample for 24 h, 75 ng/mL): -12.61% | Stability in mice plasma, RE ([2]; In auto-sample for 24 h, 750 ng/mL): -7.77% | Stability in mice plasma, RE ([2]; Room temperature for 24 h, 15 ng/mL): -6.20% | Stability in mice plasma, RE ([2]; Room temperature for 24 h, 75 ng/mL): -6.81% | Stability in mice plasma, RE ([2]; Room temperature for 24 h, 750 ng/mL): -10.81% | C max, p.o. dosage ([3]; Cmax observed at human equivalent dose of 20 mg, plasma, mice): 700 ng/mL | AUC(0-t) ([3]; BDQ + TBI-166 group (Table S4)): 62050 ± 2520 ng·h/mL | AUC(0-t) ([3]; TBI-166 group (Table S4)): 68950 ± 4840 ng·h/mL | AUC(0-last) ([3]; plasma, BDQ + TBI-166 group): 62,050 ± 2,519 h·ng/mL | AUC(0-last) as percent of single-drug group ([3]; plasma, BDQ + TBI-166 group): 91% | AUC(0-∞) ([3]; plasma, BDQ + TBI-166 group): 103,720 h·ng/mL | C max ([3]; plasma, BDQ + TBI-166 group): 709.45 ± 71.13 ng/mL | MRT(0-t) ([3]; plasma, BDQ + TBI-166 group): 65.18 h | T max ([3]; plasma, BDQ + TBI-166 group): 1 h | t 1/2 ([3]; plasma, BDQ + TBI-166 group (BDQ 25 mg/kg + TBI-166 20 mg/kg, gavage QD 21 days)): 132.67 h | t 1/2 ([3]; plasma, TBI-166 group (TBI-166 20 mg/kg alone, gavage QD 21 days)): 142.03 h | AUC(0-last) [3, 4]: 68,953 ± 4,843 h·ng/mL | AUC(0-∞) [3, 4]: 119,114 h·ng/mL | C max [3, 4]: 1,043.84 ± 92.53 ng/mL | MRT(0-t) [3, 4]: 66.37 h | T max [3, 4]: 1 h | AUC(0-last) as percent of single-drug group ([3]; plasma, TBI-166 group (reference)): 100% | Cmax ([3]; read-out: C max, p.o. dosage, Cmax observed at human equivalent dose of 20 mg, plasma, mice): 1190 nM | pIC50 (CYP2C19): 5.35
